This note sets out measurements from patent US7932253B2, “Immunomodulating oxopyrrazolocinnolines as CD80 inhibitors” (MediGene AG, priority 2004, dated 2011).

Molecules are shown by their SMILES.

The target in test [1] is T1, Biotinylated human CD80 (hCD80-BT) (Homo sapiens, UniProt P33681).
T1 construct: biotin (biotinylation)
T1 sequence (P33681 35-242 limits assumed): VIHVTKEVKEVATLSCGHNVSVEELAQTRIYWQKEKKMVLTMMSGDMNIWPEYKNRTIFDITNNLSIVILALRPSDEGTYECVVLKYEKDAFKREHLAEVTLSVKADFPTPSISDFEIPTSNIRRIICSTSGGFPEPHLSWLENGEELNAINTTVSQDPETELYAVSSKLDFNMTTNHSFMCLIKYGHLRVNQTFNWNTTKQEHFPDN
The test can be described thus: BIAcore biomolecular interaction assay. The class given is binding. The note with it: hCD80-BT immobilised on streptavidin-coated sensor chip; compound 1000 nM-0.05 nM. An excerpt:
Biotinylated human CD80 (hCD80-BT) is a recombinant soluble form of a membrane bound receptor molecule (CD80) which binds to CD28 to initiate T cell activation. The interaction between CD80 and CD28 has been extensively investigated (Collins et al, 2002). Biotinlyated human HLA-A2-tax is the recombinant soluble form of a membrane bound receptor molecule used as a control protein, and is not expected to interact with the compound.
The BIAcore S51™ system was used for screening the compounds of Examples 1-4 above. A series S sensor chip CM5 was docked onto the BIAcore S51™. Streptavidin was coupled to the carboxymethyl surface using standard amine coupling. The chip surface was activated with 0.2M EDC/0.05M NHS, followed by binding of streptavidin (0.25 mg/ml in 10 mM sodium acetate pH 5.0) and saturation of unoccupied sites with […].
The BIAcore S51 sensor chip has two separate sensor spots for immobilisation of proteins. hCD80-BT was immobilised on the streptavidin-coated surface of one sensor spot until a response of approximately 3000 RU was observed. A protein to control for non-specific binding of the compound was immobilised on a second sensor spot. […]
BIAcore S51™ was run at a flow rate of 30 μl/min using running buffer. […] Data were recorded automatically and were analysed using BIAcore S51 Evaluation software.

The target of the next test is T2, CD80-CD28 interaction (Homo sapiens, UniProt P33681).
T2 construct: mouse Fab fragment (fusion partner)
T2 sequence (P33681 35-242 limits assumed): T1 sequence (P33681 35-242 limits assumed)
The test can be described thus: Homogeneous time resolved fluorescence (TR-Fret) assay, cell free. The format is biochemical. The note with it: inhibition of the CD80-CD28 interaction; 4 hours at room temperature. Here is the method:
The compound was tested in a cell free homogenous time resolved fluorescence (HT-Fret) assay to determine their activity as an inhibitor of the CD80-CD28 interaction.
In the assay, europium and allophycocyanin (APC) are associated with CD28 and CD80 indirectly (through antibody linkers) to form a complex, which brings the europium and APC into close proximity to generate a signal. The complex comprises the following six proteins: fluorescent label 1, linker antibody 1, CD28 fusion protein, CD80 fusion protein, linker antibody 2, and fluorescent label 2. The table below describes these reagents in greater detail.
On formation of the complex, europium and APC are brought into proximity and a signal is generated.
Non-specific interaction was measured by substituting a mouse Fab fragment (C215) for the CD80 mouse Fab fragment fusion protein (1.9 μg/ml). The assay was carried out in black 384 well plates in a final volume of 30 μl. Assay buffer: 50 mM Tris-HCl, 150 mM NaCl pH7.8, containing 0.1% BSA (w/v) added just prior to use.
Compounds were added to the above reagents in a concentration series ranging between 100 μM-1.7 nM. The reaction was incubated for 4 hours at room temperature. Dual measurements were made using a Wallac Victor 1420 Multilabel Counter. […] Counts were automatically corrected for fluorescence crossover, quenching and background.

`O=C(N[C@H]1CN2CCC1CC2)c1ccc(-n2[nH]c3c(nnc4c(F)ccc(F)c43)c2=O)cc1` [The compound, (R)—N-(1-Aza-bicyclo[2.2.2]oct-3-yl)-4-(6,9-difluoro-3-oxo-1,3-dihydro-pyrazolo[4,3-c]cinnolin-2-yl)-benzamide]: the Kd in test [1] was determined as 0.35 nM. Further, the EC50 at CD80-CD28 interaction came to 0.82 nM.
